How the values were obtained:
Assay type in all cases: cell-based
[1] = tested on: Chlamydomonas reinhardtii cells; experiment: Microscopy of treated cells (organelles, lipid droplets); conditions: FIG. 1
Description: The screening library included 43,736 compounds (ChemBridge, Corp). […] A sub-set of compounds were retested using an 8-point dose response assay (0.25-30 μM). Compounds were further assessed visually using a Nikon Ti-inverted microscope (60×) to reconfirm lipid droplet accumulation was induced.

[2] = tested on: Chlamydomonas reinhardtii cells; experiment: Fatty acid assay; conditions: 30 μM, FIG. 5
[3] = tested on: Chlamydomonas reinhardtii cells; experiment: Cellular chlorophyll and carotenoid levels; conditions: 30 μM, FIG. 7
[4] = tested on: Chlamydomonas reinhardtii cells; experiment: Triglyceride assay; conditions: 5 μM, FIG. 6
[5] = tested on: Chlorella sorokiniana UTEX 1230; experiment: Lipid accumulation in algal cells; conditions: 0.63 μM to 50 μM, FIG. 11A-11C
Description: (§1) Compounds 1, 62, and 136 were assayed in algal species Chlamydomonas reinhardtii CC125, Chlorella sorokiniana UTEX 1230, Chlorella vulgaris UTEX 395, and Tetrachlorella alterns UTEX 2453 at concentrations ranging from 0.63 μM to 50 μM.

[6] = tested on: Chlamydomonas reinhardtii CC125; experiment: Lipid accumulation in algal cells; conditions: 0.63 μM to 50 μM, FIG. 11A-11C
Description: as §1

[7] = tested on: Chlorella vulgaris UTEX 395; experiment: Lipid accumulation in algal cells; conditions: 0.63 μM to 50 μM, FIG. 11A-11C
Description: as §1

[8] = tested on: Tetrachlorella alterns UTEX 2453; experiment: Lipid accumulation in algal cells; conditions: 0.63 μM to 50 μM, FIG. 11A-11C
Description: as §1

[9] = tested on: Chlamydomonas reinhardtii cells; experiment: Levels of proteins required for photosynthesis; conditions: Rubisco large and small sub unit, PSa D, PSb A, phosphoribulokinase, histone; FIG. 8
[10] = tested on: Chlamydomonas reinhardtii cells; experiment: Lipid accumulation using lipophilic dye Nile Red
Description: […] At the indicated times 200 μL cells were removed from each well and optical density and nile red fluorescence were measured.
Lipid accumulation over a period of 72 hours was also measured (30 μM test compound) using lipophilic dye Nile Red, as shown in FIG. 4. […] FIGS. 12A-12C show representative images of C. reinhardtii cultures that were treated with 10 μM of representative test compounds of Formula Ia, Formula IIa, and Formula IIIa. The corresponding lipid accumulation was visualized using confocal microscopy after 72 hours in culture.

[11] = tested on: Chlamydomonas reinhardtii cells; experiment: Cellular carbohydrate levels; conditions: 30 μM, FIG. 9
[12] = tested on: Chlamydomonas reinhardtii cells; experiment: Total protein levels in cells; conditions: FIG. 10

CN(CCC#N)C12CC3CC(CC(C3)C1)C2 [Compound 136, 3-(adamantan-1-yl(methyl)amino)propanenitrile]
disruption of major organelles including nucleus, endoplasmic reticulum, and chloroplast [1]: does not disrupt major organelles
fatty acid levels [2]: increased fatty acid levels
carotenoid levels [3]: did not significantly alter
levels of chlorophyll A (Chl A) [3]: did not significantly alter
levels of chlorophyll B (Chl B) [3]: did not significantly alter
triacylglyercol levels [4]: increased triacylglyercol levels
lipid accumulation [5]: stimulated lipid accumulation
lipid accumulation [6]: stimulated lipid accumulation
lipid accumulation [7]: stimulated lipid accumulation
lipid accumulation [8]: stimulated lipid accumulation
levels of proteins required for photosynthesis [9]: did not significantly affect
lipid accumulation ([10]; 0.5 μM to 15.0 μM, FIG. 3): increased lipid accumulation
lipid accumulation over 72 hours ([10]; 30 μM test compound, FIG. 4): increased lipid accumulation
carbohydrate levels [11]: increased carbohydrate levels
total protein levels [12]: None of the test compounds significantly affected
